Reference: US10561638B2, “Methods for treating dependence” (Biotie Therapies, Inc., priority 2007, dated 2020)
“Also recorded” adds a separate entry of the source.

Key:
[1] = test system: MPTP-lesioned squirrel monkey; assay: MPTP-lesioned squirrel monkey Parkinsonian model; type: in vivo, squirrel monkeys
Experimental: Twenty four squirrel monkeys, fourteen females and ten males were used in a Parkinsonian model. The twenty-four animals were randomly assigned to one of four treatment groups, with 6 animals per group. The groups consisted of the following: Group A (6 animals) received placebo (water) treatment; Group B (5 animals) received drug nepicastat at 1 mg/kg/day (0.5 mg/kg twice daily); Group C (6 animals) received 4 mg/kg/day (2 mg/kg twice daily); and Group D (6 animals) received 10 mg/kg/day (5 mg/kg twice daily). In Group B, one animal died acutely following MPTP-lesioning, and was not replaced.
Prior to lesioning, animals were subjected to quantitative assessment of spontaneous motor activity using an infrared activity monitor (IRAM) cage. All recording sessions were 60 minutes in length and were carried out for 10 sessions over a period of 2 weeks. The behavior of animals was also assessed by 1 to 3 clinical raters using a parkinsonian clinical rating scale (CRS) once per day (12 noon to 1 pm) for 3 to 5 consecutive days. […] Both the activity monitoring (IRAM) and clinical rating assessments established the mean base-line activity of each animal.
Animals were lesioned by the administration of MPTP at a concentration of 2.0 mg/kg (free-base) via subcutaneous injection to achieve a parkinsonian state. A post-MPTP lesioning behavioral assessment was carried out 2 to 4 weeks after the last MPTP-lesioning. Locomotor activity was monitored by IRAM in 60-minute sessions for 3 to 5 days. Clinical behavior (CAS) was assessed by one to three individuals rating over a period of 3 to 5 days.
Animals were tested for response to L-Dopa and the efficacy of drug nepicastat. Testing was carried out 4 to 12 weeks after the last MPTP dose. L-Dopa was administered at a concentration of either 2.5, 5, or 7.5 mg/kg by oral gavage twice daily (at 10 am and 2 pm) for 7 consecutive days. Behavior was determined by IRAM and CRS. Clinical rating was carried out 60 to 90 minutes following the 10 am morning dose on the last 4 days of treatment. Raters (one to three individuals) were blinded to the different treatment groups. IRAM assessment were preformed for 90 minutes immediately following drug administration at 2 pm on the last 2 to 5 days of drug treatment. There was a minimum 2 day washout period between each treatment dose.
Nepicastat or water (as placebo) was administered for 12 days following a minimum 2 day washout after L-Dopa dosing. Drug was administered twice daily at 10 am and 2 pm by oral gavage. Behavior was rated by IRAM and CRS. The CRS was conducted in the morning, 60 to 90 minutes after the 10 am dose of nepicastat on the last 5 days of drug treatment. Raters (one to three individuals) were blinded to the different treatment groups. IRAM assessments were preformed for 90 minutes immediately following drug administration at 2 pm on the last 5 days of drug treatment.
Eight parkinsonian features were rated in each animal and the total score was derived from the sum of these eight features. For each animal, a single clinical rating score was obtained for each drug dose by averaging the clinical rating scores of all raters (one to three) conducted over the consecutive multiple dosing (with the same dose) days. This average CRS was used for statistical analysis. A lower score was considered a less parkinsonian behavioral state.
Statistical analysis consisted of: (1) comparisons between the average CRS of placebo to nepicastat at 1, 4, and 10 mg/kg/day using the Kruskal-Wallis (non-parametric analysis of variance). This comparison was repeated using the average CRS for each experimental drug concentration corrected by the final post-MPTP ratings for each animal. The corrected clinical scores are clinical scores of experimental drug at each concentration as a ratio of post-MPTP clinical scores. […]

[2] = in vivo
Experimental: The pharmacokinetics of nepicastat after a single 40 mg dose was compared in men and women.

serum T3 and T4 levels = assay: Thyroid function (serum T3, T4) in iodine-deficient rats; type: in vivo, Sprague-Dawley rats; settings: for reduction in serum T3 / reduction in serum T4: 1 mg/kg po b.i.d.; for effect on serum T3 and T4 levels: methimazole 1 mg/kg b.i.d. (2 mg/kg/d)
Experimental: Since the heterocyclic portion of nepicastat is structurally similar to methimazole, a known potent suppressor of mammalian thyroid function, the effects of nepicastat on thyroid function were evaluated at doses of 2.0 and 6.2 mg/kg, po, b.i.d in iodine-deficient Sprague-Dawley rats (n=9-12) for 10 days.
Male Sprague-Dawley rats, weighing 180-200 grams, were fed an iodine deficient diet (Purina, 5891C, Lot 1478, 0.066±0.042 mg iodine/kg sample) ad libitum 14 days prior to treatment. Animals were weighed and randomly assigned to one of the following treatment groups (n=12 per group): nepicastat at 2.0 mg/kg, nepicastat at 6.2 mg/kg, Methimazole at 1 mg/kg, or vehicle at 1 ml/kg. Each group of rats was dosed orally in the evening and the following morning, approximately 12 hours apart, for 10 consecutive days.
Orbital blood samples were taken at day −3, 0, 3, 7, and 9 (day 0 was the first day of dosing). Serum samples were analyzed for T3 and T4 levels using a radioimmunoassay.
To statistically evaluate changes in T3 and T4 levels, a change from baseline was calculated from the day −3 time point. A non-parametric two-way within subject analysis of variance (ANOVA) was conducted. Also a one-way ANOVA was performed to detect if a significant difference from control occurred. Pairwise analyses between controls and each treatment group were carried out using Fisher's LSD strategy to control the experiment-wise error rate. For statistical analysis of catecholamine levels, a one-way ANOVA with factor DOSE was performed. Pairwise analyses between treated and controls at each dose were carried out using Fisher's LSD strategy to control the experiment-wise error rate.

[3] = Pilot observation studies in rats, acute and repeated oral administration
Experimental: Similarly, in a separate study, physostigmine (1, 3, 10 or 30 mg/kg p.o.) or vehicle were administered acutely to groups of 8 rats.
In pilot studies of repeated administration, nepicastat (100 mg/kg p.o.) or vehicle was administered twice daily (06:00 and 18:00 h) for 10 days (once on day 11) to groups of 8 rats. The weights of the animals were monitored throughout the study and, on day 5, the animals were observed ‘blind’ by an independent observer in order to assess any overt behavioural/physiological effects following repeated administration. In a separate study, groups of 8 rats received vehicle or physostigmine (0.3, 1, 3 or 10 mg/kg p.o.) using the same dosing schedule. The weights of the animals were monitored throughout the study.

[4] = test system: short-term or working memory in rats; assay: Delayed-matching-to-position (DMTP) test; type: in vivo, Sprague Dawley rats
Experimental: In the present DMTP study, rats were trained to remember the position of a lever across a scheduled delay of either 0, 8, 16 or 32 s in order to earn food reward. […] Another group of rats received only vehicle treatment throughout the experiment. […] The dependent measures in the present study included percentage of correct choices, the latency to make choice responses and the number of trials which the animals were able to complete during the 70 min test sessions. Changes in the former measure may indicate changes in memory and/or attentional function whereas changes in the latter two measures may be indicative of other non-cognitive effects of the drugs. Matching to position training began next. This and all subsequent training was conducted with the partitions fitted into the operant boxes. The sessions were initially 50 minutes long. Rats were placed in the operant box and the session began when the houselight was illuminated. Following a 30 s intertrial interval (ITI), one of the two levers (the sample lever) was inserted into the chamber. The lever remained inserted into the chamber until a lever-press response occurred. […] As soon as the magazine flap was pressed the magazine light was extinguished and both levers were inserted. […] The magazine light remained on until the flap was pressed. […] A 30 s ITI was initiated before the commencement of a new trial. The lever inserted as the sample lever was semi-randomly determined such that the right and lefthand levers were presented as the sample lever 8 times in a block of 16 trials. Following 24 sessions, the animals were performing the matching to position task with a high degree of accuracy. On Session 25 a variable delay interval was interposed between the depression of the sample lever and presentation of the levers on the choice trial. After a response to the sample lever, the choice levers were inserted following the first flap press occurring after either a 0 s (immediate), 4, 8 or 16 s delay. The order of the four types of trials (0, 4, 8 or 16 s delay) was semi-randomly determined with the constraint that in a 16 trial block, each delay occurred 4 times; twice on a left trial and twice on a right trial. […] The same trial was reinstated following the end of the ITI. From Session 25 onward the time-out period following incorrect choices was omitted and the session length was increased to 70 minutes. […] Due to poor performance at the 64 s delay, however, this delay was not used in any further sessions. On Session 59, delays of 0, 8, 16 and 32 s were used. These delays were used in all subsequent sessions. Only 51 of the 56 rats completed more than 24 trials (correction plus non-correction) during Session 59. These rats were selected and semi-randomly assigned to the following 7 groups such that the groups were matched on performance (percent correct, response latency and number of trials completed): […] Thus, the drug treatments administered to the seven groups during the 11 consecutive days of the present experiment were: The data collected and analyzed in the present DMTP study include 1) the percentage of correct responses; 2) the latency between performance of a response to the sample lever and the performance of the choice response and 3) the total number of correction and non-correction trials completed. The former two dependent measures were collected for the non-correction trials only. […] Two-way analysis of variance (ANOVA) with drug treatment as the between-subjects factor and delay (0, 8, 16 or 32 s) as the within-subjects factor was used to analyze percentage of correct choices and response latency. These analyses were conducted separately for each block of data. Significant interactions were followed by a one-way ANOVA which was conducted at each delay. A significant main effect from a one-way ANOVA was followed by a two-tailed Dunnett's t-test. One-way ANOVA followed by a post hoc Dunnett's test, when appropriate, was used to analyze the mean number of trials completed. […]

Structure (SMILES): N[C@@H](Cc1ccc(O)c(O)c1)C(=O)O [L-Dopa, reference compound]
- parkinsonian clinical rating vs post-MPTP ([1]; L-Dopa 2.5 mg/kg): No groups of animals demonstrated significant improvement; also recorded: no significant effect
- parkinsonian clinical rating vs post-MPTP (pre-treatment) ([1]; L-Dopa 5 and 7.5 mg/kg, except Group C at 7.5 and Group B at 5 mg/kg): significant improvement; also recorded: significant effect

Structure (SMILES): CC(=O)NCc1c[nH]c(=S)n1[C@H]1CCc2c(F)cc(F)cc2C1 [N-acetyl metabolite of nepicastat]
- Cmax and AUC of the N-acetyl metabolite, slow vs fast acetylators [2]: much lower in the slow acetylators

Structure (SMILES): Cn1cc[nH]c1=S [methimazole]
- reduction in serum T3 (serum T3 and T4 levels; day 3, 4 h post-dose): 31%
- reduction in serum T4 (serum T3 and T4 levels; day 3, 4 h post-dose): 46%
- reduction in serum T3 (serum T3 and T4 levels; day 7, 4 h post-dose): 42%
- reduction in serum T4 (serum T3 and T4 levels; day 7, 4 h post-dose): 58%
- reduction in serum T3 (serum T3 and T4 levels; day 9, 4 h post-dose): 44%
- effect on serum T3 and T4 levels (serum T3 and T4 levels): significantly reduced
- effect on serum T3 and T4 levels (serum T3 and T4 levels; listed as Methimazole): significantly (p<0.05) lowered
- T4 levels vs vehicle (serum T3 and T4 levels; methimazole 1.0 mg/kg, day nine): marginally (p<0.10) lower

Structure (SMILES): CNC(=O)Oc1ccc2c(c1)[C@]1(C)CCN(C)[C@@H]1N2C [physostigmine, Physostigmine sulphate, reference compound]
- convulsions on repeated administration ([3]; physostigmine 3 mg/kg p.o.): 2 of 8 animals convulsed on day 5
- mortality on repeated administration ([3]; physostigmine 10 mg/kg p.o.): 3 of 8 animals were found dead on day 2
- acute toxicity ([3]; physostigmine 30 mg/kg p.o.): Signs of toxicity were observed
- effects of repeated administration ([3]; physostigmine 0.3 or 1 mg/kg): no effects
- acute doses inducing overt behavioural effects ([3]; physostigmine p.o.): ≥ 3 mg/kg
- all dependent measures ([4]; Block 2): no significant effects on any of the dependent measures
- choice accuracy ([4]; Block 3, physostigmine 1.0 mg/kg b.i.d.): delay-independent impairment in choice accuracy
- response latency, number of trials completed ([4]; Block 5): did not significantly affect
- improvement of DMTP performance ([4]; administered alone, 10 days): did not improve performance
- reversal of the effects of scopolamine ([4]; day 11 scopolamine test): did not appear to reverse the effects of scopolamine
